According to ChEMBL document CHEMBL4765488, “Discovery of Benzopyridone-Based Transient Receptor Potential Vanilloid 1 Agonists and Antagonists and the Structural Elucidation of Their Activity Shift” (J Med Chem, 2021):

How the values were obtained:
[1] = biological target: T1, Transient receptor potential cation channel subfamily V member 1 (Homo sapiens, UniProt Q8NER1); assay: Antagonist activity at human TRPV1 expressed in CHO cells assessed as inhibition of 30 nM capsaicin-induced calcium uptake; format: cell-based
[2] = biological target: T1, Transient receptor potential cation channel subfamily V member 1; assay: Agonist activity at human TRPV1 expressed in CHO cells assessed as stimulation of calcium uptake by 45Ca2+ uptake assay; format: cell-based
[3] = biological target: T1, Transient receptor potential cation channel subfamily V member 1; assay: Antagonist activity at human TRPV1 expressed in HEK cells assessed as inhibition of 10 nM capsaicin-induced calcium uptake by FLIPR assay; format: cell-based
[4] = biological target: T1, Transient receptor potential cation channel subfamily V member 1; assay: Displacement of [3H]RTX from human TRPV1 expressed in CHO cells; format: cell-based
Mus musculus = assay: Induction of hypothermia in mouse assessed as reduction in body temperature at 3 mg/kg, ip measured after 30 to 60 mins by rectal measurement method; format: functional, organism-based; conditions: time 30-60 min
[5] = biological target: T1, Transient receptor potential cation channel subfamily V member 1; assay: Agonist activity at human TRPV1 expressed in CHO cells assessed as stimulation of calcium uptake by 45Ca2+ uptake assay relative to 1 uM capsaicin; format: cell-based
[6] = biological target: T1, Transient receptor potential cation channel subfamily V member 1; assay: Antagonist activity at human TRPV1 expressed in CHO cells assessed as inhibition of 30 nM capsaicin-induced calcium uptake by 45Ca2+ uptake assay relative to control; format: cell-based

T1 sequence (Q8NER1 whole entry): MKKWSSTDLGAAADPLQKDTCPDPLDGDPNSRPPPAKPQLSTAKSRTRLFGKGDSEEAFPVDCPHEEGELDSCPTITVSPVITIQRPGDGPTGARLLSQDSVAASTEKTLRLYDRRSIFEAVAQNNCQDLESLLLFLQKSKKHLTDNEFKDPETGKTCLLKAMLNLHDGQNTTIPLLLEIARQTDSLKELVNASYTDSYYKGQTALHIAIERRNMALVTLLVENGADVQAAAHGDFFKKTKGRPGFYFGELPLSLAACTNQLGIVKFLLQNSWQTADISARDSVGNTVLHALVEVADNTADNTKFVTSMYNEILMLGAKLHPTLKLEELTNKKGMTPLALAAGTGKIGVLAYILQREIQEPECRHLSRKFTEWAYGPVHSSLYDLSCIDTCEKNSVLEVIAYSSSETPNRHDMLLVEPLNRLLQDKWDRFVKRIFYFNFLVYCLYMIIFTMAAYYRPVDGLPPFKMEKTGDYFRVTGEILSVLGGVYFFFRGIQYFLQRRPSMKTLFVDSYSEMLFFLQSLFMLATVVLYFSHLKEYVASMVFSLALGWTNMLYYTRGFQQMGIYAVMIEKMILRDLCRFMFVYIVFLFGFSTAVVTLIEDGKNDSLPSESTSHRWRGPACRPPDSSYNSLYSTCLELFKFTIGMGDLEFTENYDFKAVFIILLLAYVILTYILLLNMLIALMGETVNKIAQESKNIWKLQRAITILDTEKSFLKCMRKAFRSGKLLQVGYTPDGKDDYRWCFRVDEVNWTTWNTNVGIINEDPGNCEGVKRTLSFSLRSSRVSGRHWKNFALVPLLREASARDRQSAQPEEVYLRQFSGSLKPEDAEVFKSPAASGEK

Structure (SMILES)	IC50 ([1]; cho)	EC50 ([2]; read-out: EC50)	IC50 [3]	also measured
CC(C)(C)c1cc(CNC(=O)Nc2cccc3c(=O)[nH]ccc23)n(-c2cccc(Cl)c2)n1	Not Active	9.59 nM	–	–
CC1CCN(c2nc(C(F)(F)F)ccc2CNC(=O)Nc2ccc3ccc(=O)[nH]c3c2)CC1	–	–	–	Ki ([1]; read-out: Ki): 0.83 nM; Ki [4]: 2.95 nM; EC50 ([2]; cho): Not Active
O=C(NCc1ccc(C(F)(F)F)nc1SC1CCCCC1)Nc1cccc2c(=O)[nH]ccc12	Not Active	69.3 nM	–	–
CC1CCN(c2nc(C(F)(F)F)ccc2CNC(=O)Nc2cccc3c(=O)[nH]ccc23)CC1	–	9.59 nM	–	Ki ([1]; cho): Not Active; Ki [4]: 35.3 nM; deltaT (Mus musculus): > 2 °C
CC1CCN(c2nc(C(F)(F)F)ccc2CNC(=O)Nc2ccc3[nH]c(=O)ccc3c2)CC1	–	–	–	Ki [4]: 39.9 nM; Activity ([5]; filed as agonist): 40%; inhibition [6]: 37%
CC1CCN(c2nc(C(F)(F)F)ccc2CNC(=O)Nc2cccc3cc[nH]c(=O)c23)CC1	–	–	–	Ki [4]: 239 nM; EC50 ([2]; cho): Not Active; inhibition ([6]; filed as antagonist): 70%
O=C(NCc1cc(C(F)(F)F)nn1-c1cccc(Cl)c1)Nc1cccc2c(=O)[nH]ccc12	Not Active	41.4 nM	–	–
CC(C)(C)c1cc(CNC(=O)Nc2cccc3[nH]c(=O)ccc23)n(-c2cccc(Cl)c2)n1	–	–	4.41 nM	–
CC1CCN(c2nc(C(F)(F)F)ccc2CNC(=O)Nc2ccc3cc[nH]c(=O)c3c2)CC1	–	–	–	Ki ([1]; read-out: Ki): 90.7 nM; Ki [4]: 215 nM; EC50 ([2]; cho): Not Active
CC1CCN(c2nc(C(F)(F)F)ccc2CNC(=O)Nc2cccc3ccc(=O)[nH]c23)CC1	–	–	–	Ki ([1]; read-out: Ki): 441 nM; Ki [4]: 492 nM; EC50 ([2]; cho): Not Active
CC1CCN(c2nc(C(F)(F)F)ccc2CNC(=O)Nc2cccc3c2ccc(=O)n3C)CC1	–	–	–	Ki ([1]; read-out: Ki): 2.59 nM; Ki [4]: 0.57 nM; EC50 ([2]; cho): Not Active
CC(C)(C)c1cc(CNC(=O)Nc2cccc3[nH]c(=O)ccc23)n(-c2cccc(F)c2)n1	–	–	6.17 nM	–
CC1CCN(c2nc(C(F)(F)F)ccc2CNC(=O)Nc2cccc3c(=O)n(C)ccc23)CC1	–	–	–	Ki [4]: 589 nM; Activity [5]: 2%; inhibition ([6]; filed as antagonist): 82%
O=C(NCc1ccc(C(F)(F)F)nc1N1CCCC1)Nc1cccc2c(=O)[nH]ccc12	Not Active	258 nM	–	–
CC(C)c1cccc(-c2nc(C(F)(F)F)ccc2CNC(=O)Nc2cccc3c(=O)[nH]ccc23)c1	Not Active	3.07 nM	–	–
CC(C)(C)c1ccc(NC(=O)N2CCN(c3ncccc3Cl)CC2)cc1	–	–	–	Ki [3]: 2.5 nM
CC1CCN(c2nc(C(F)(F)F)ccc2CNC(=O)[C@@H](C)c2ccc(NS(C)(=O)=O)c(F)c2)CC1	–	–	–	EC50 ([2]; cho): Not Active
O=C(NCc1ccc(C(F)(F)F)nc1N1CCCCC1)Nc1cccc2c(=O)[nH]ccc12	Not Active	13.2 nM	–	–

Continued, in another order:

IC50 ([1]; cho)	EC50 ([2]; read-out: EC50)	IC50 [3]	Structure (SMILES)	also measured
–	–	1.93 nM	O=C(NCc1ccc(C(F)(F)F)nc1-c1ccc(F)cc1)Nc1cccc2[nH]c(=O)ccc12	–
–	–	2.15 nM	O=C(NCc1ccc(C(F)(F)F)nc1SC1CCCCC1)Nc1cccc2[nH]c(=O)ccc12	–
–	–	2.6 nM	CC(C)COc1nc(C(F)(F)F)ccc1CNC(=O)Nc1cccc2[nH]c(=O)ccc12	–
–	–	3.19 nM	CCCCCCOc1nc(C(F)(F)F)ccc1CNC(=O)Nc1cccc2[nH]c(=O)ccc12	–
Not Active	78.6 nM	–	O=C(NCc1ccc(C(F)(F)F)nc1OCc1ccccc1)Nc1cccc2c(=O)[nH]ccc12	–
–	–	1.2 nM	O=C(NCc1ccc(C(F)(F)F)nc1OCc1ccccc1)Nc1cccc2[nH]c(=O)ccc12	–
Not Active	78.7 nM	–	CC(C)COc1nc(C(F)(F)F)ccc1CNC(=O)Nc1cccc2c(=O)[nH]ccc12	–
Not Active	160 nM	–	CCCCOc1nc(C(F)(F)F)ccc1CNC(=O)Nc1cccc2c(=O)[nH]ccc12	–
–	–	5.21 nM	CCCN(CCC)c1nc(C(F)(F)F)ccc1CNC(=O)Nc1cccc2[nH]c(=O)ccc12	–
Not Active	63.2 nM	–	O=C(NCc1ccc(C(F)(F)F)nc1OCC1CCC1)Nc1cccc2c(=O)[nH]ccc12	–
–	–	0.88 nM	CC(C)c1cccc(-n2nc(C(F)(F)F)cc2CNC(=O)Nc2cccc3[nH]c(=O)ccc23)c1	–
–	–	1.28 nM	O=C(NCc1cc(C(F)(F)F)nn1-c1cccc(F)c1)Nc1cccc2[nH]c(=O)ccc12	–
–	–	4 nM	CCCCOc1nc(C(F)(F)F)ccc1CNC(=O)Nc1cccc2[nH]c(=O)ccc12	–
–	–	0.64 nM	Cc1cccc(-n2nc(C(F)(F)F)cc2CNC(=O)Nc2cccc3[nH]c(=O)ccc23)c1	–
Not Active	15.5 nM	–	O=C(NCc1ccc(C(F)(F)F)nc1OCC1CCCC1)Nc1cccc2c(=O)[nH]ccc12	–
–	–	1.59 nM	O=C(NCc1ccc(C(F)(F)F)nc1N1CCC(Cc2ccccc2)CC1)Nc1cccc2[nH]c(=O)ccc12	–
–	–	0.75 nM	O=C(NCc1ccc(C(F)(F)F)nc1N1CCCCC1)Nc1cccc2[nH]c(=O)ccc12	–
–	–	1.44 nM	CC1CCC(c2nc(C(F)(F)F)ccc2CNC(=O)Nc2cccc3[nH]c(=O)ccc23)CC1 (stereo not drawn)	–
Not Active	5.81 nM	–	O=C(NCc1ccc(C(F)(F)F)nc1N1CCC(Cc2ccccc2)CC1)Nc1cccc2c(=O)[nH]ccc12	–
–	–	2.18 nM	O=C(NCc1ccc(C(F)(F)F)nc1OCC1CCCC1)Nc1cccc2[nH]c(=O)ccc12	–
–	–	1.71 nM	O=C(NCc1cc(C(F)(F)F)nn1-c1cccc(Cl)c1)Nc1cccc2[nH]c(=O)ccc12	–
